In test [1] the test system is P. aeruginosa PA14. The test is described as follows: Growth inhibition assay in nutrient medium (OD600). It counts as cell-based, Pseudomonas aeruginosa.
Test [2] concerns A. baumannii AB5075. The test is described as follows: Growth inhibition assay in LB medium (OD600). The class given is cell-based, Acinetobacter baumannii.
The subject of the next test is A. baumannii. Briefly: Crystal violet biofilm formation assay / minimum biofilm inhibition concentration. It counts as cell-based, Acinetobacter baumannii. As to the method: (§1) Biofilm formation is linked to 80% of hospital-associated infections and is a major factor in the routine failure of antibiotic therapy.
(§2) All samples were exposed to the artificial sweeteners in LB medium for 19 hours before crystal violet biofilm assay was performed. […] The data present the mean of three biological replicates±SD. *p≤0.05, *p≤0.001 versus the bacterial growth in control samples.
(§3) All samples were exposed to artificial sweeteners for 19 hours before crystal violet biofilm assay was performed.

Test [3] relates to E. coli.
Excerpt: (§4) N=3 biological triplicate, each with technical triplicates).
Test [4] has as its system E. coli. The source holds these as a separate data set.
In test [5] the test system is A. baumannii gene expression. As for the experimental part: Cells were spun down and washed in RNAlater to preserve mRNA. RNA was isolated using a Qiagen RNAeasy Kit with column DNAase digestion. RNA integrity was determined using a Bioanalyzer. Samples were further processed for RNA sequencing on an Illumina MiSeq with 12 million reads per sample. Quality control and adapter trimming was performed with bcl2fastq.

Test [6] deals with A. baumannii AB5075. The test is described as follows: Carbapenem E strip on agar with sweetener.
Excerpt: The data presented is a representative image of three biological replicates±SD.
The test system of test [7] is P. aeruginosa PA14. The test is described as follows: Crystal violet biofilm formation assay / minimum biofilm inhibition concentration. The class given is cell-based, Pseudomonas aeruginosa. The following applies: 3% (w/v) sucralose, […] (w/v) ace-K, LB medium, 19 hours. As for the experimental part: as §1, §2, §3
For another test, the system named is P. aeruginosa. The test is described as follows: Antibiotic susceptibility in the presence of sub-minimum inhibitory concentration of ace-K. It counts as cell-based, Pseudomonas aeruginosa. Conditions: grown in the presence of ace-K for 19 hours.
In test [8] the test system is A. baumannii AB5075. Also noted: species or system Acinetobacter baumannii. As for the experimental part:
In this model, porcine skin was either burnt or lacerated and the wound infected with A. baumannii AB5075 and left for 3.5 hours to allow a biofilm to form. The dressing was applied for 1 hour and viable cells were collected after treatment. […] Samples were tested in biological triplicate with technical quadruplets.
(8% (w/w)), potassium tetraborate (3% (w/w)), and PVA (3% ((w/w)) were added into a beaker and mixed with deionized water. The mixture was placed in a water bath and heated at 80° C. for three hours with watch glass while being swirled with a stirring rod every 1 hour. Once hydrogels had been obtained, they were placed in a petri dish with custom-made moulds.

Setting [9] is: […] sweetener, 19 hours, LB medium.
Where [10] appears, read: […] sweetener, 19 hours, 37° C.

Like-named read-outs stand apart in the source and are kept apart here.

Excerpt for Klebsiella pneumoniae: as §4

On to `O=S(=O)([O-])NC1CCCCC1.[Na+]` [cyclamate, sodium cyclamate], for which the “bacterial growth in the presence of sweetener” value (from here on “bacterial growth”) with P. aeruginosa PA14 [1] and in the test on A. baumannii AB5075 [2] was “inhibit the growth” each time. The “concentration showing significant / effective growth inhibition” value in the test on P. aeruginosa PA14 [1] is at least 2%; in the test on A. baumannii AB5075 [2], at least 2%; in the test on E. coli [3], at least 0.1%; in the test with Klebsiella pneumoniae, at least 2%. The “concentration inhibiting biofilm formation” value in the test on K. pneumonia and in the test on E. coli [4] was at least 3% in each case. For the same compound, the “concentration with significant impact on / inhibition of biofilm formation” value in the test with A. baumannii is listed as at least 4%. Further, in test [5], the “number of genes significantly differentially expressed” value came out at 288 genes.
In the case of `C[C@@H](O)[C@H]1C(=O)N2C(C(=O)O)=C(S[C@@H]3CN[C@H](CNS(N)(=O)=O)C3)[C@H](C)[C@H]12` [doripenem], the “point to which growth was inhibited on the strip” value is on record as 18.67 ± 4.61 mg/L in the test on A. baumannii AB5075 [6] (Control), 13.33 ± 2.31 ns mg/L in the test with A. baumannii AB5075 [6] (SAC 1%) and 0.46 ± 0.07 mg/L with A. baumannii AB5075 [6] (SAC […]).
In the case of `OC[C@@H](O)[C@@H](O)CO` [erythritol, Erythritol], the “bacterial growth” value in the test with A. baumannii AB5075 [2] (setting [9]) is given as “inhibit the growth”.
For `C[C@@H](O)[C@H]1C(=O)N2C(C(=O)O)=C(SCCN=CN)C[C@H]12` [imipenem], the entries for the “point to which growth was inhibited on the strip” value in the test on A. baumannii AB5075 [6] (Control), with A. baumannii AB5075 [6] (SAC 1%) and in the test on A. baumannii AB5075 [6] (SAC […]) were 21.33 ± 4.61 mg/L, 18.67 ± 4.61 ns mg/L and 1 ± 0.43 mg/L, respectively.
Regarding `OCC1O[C@@H](O[C@@H]([C@H](O)[C@@H](O)CO)[C@H](O)CO)C(O)C(O)[C@H]1O` (stereo partly drawn) [lactitol monohydrate, Lactitol], the “bacterial growth” value in the test with A. baumannii AB5075 [2] (setting [9]) was “inhibit the growth”.
Consider `OC[C@@H](O)[C@@H](O[C@H]1O[C@H](CO)[C@@H](O)[C@H](O)[C@H]1O)[C@H](O)[C@@H](O)CO` [maltitol, Maltitol], for which the “bacterial growth” value in the test with P. aeruginosa PA14 [1] (setting [10]) and in the test with A. baumannii AB5075 [2] (setting [9]) was “inhibit the growth” each time.
For `OC[C@@H](O)[C@@H](O)[C@H](O)[C@H](O)CO` [mannitol, Mannitol], the “bacterial growth” value with A. baumannii AB5075 [2] (setting [9]) was “inhibit the growth”.
For the compound `C[C@@H](O)[C@H]1C(=O)N2C(C(=O)O)=C(S[C@@H]3CN[C@H](C(=O)N(C)C)C3)[C@H](C)[C@H]12` [meropenem], the “point to which growth was inhibited on the strip” value in the test with A. baumannii AB5075 [6] (Control) is at least 32 mg/L; with A. baumannii AB5075 [6] (SAC 1%), 29.33 ± 4.61 ns mg/L; in the test on A. baumannii AB5075 [6] (SAC […]) it was 0.54 ± 0.19 mg/L.
Consider `OC[C@@H](O)[C@@H](O)[C@H](O)[C@@H](O)CO` [sorbitol], for which the “bacterial growth” value in the test with P. aeruginosa PA14 [1] (setting [10]) is reported as “inhibit the growth”.
Consider `OC[C@H]1O[C@H](O[C@]2(CCl)O[C@H](CCl)[C@@H](O)[C@@H]2O)[C@H](O)[C@@H](O)[C@H]1Cl` [sucralose, Sucralose], for which the “bacterial growth” value in the test with P. aeruginosa PA14 [1] (setting [10]) and in the test on A. baumannii AB5075 [2] (setting [9]) was “inhibit the growth” throughout. Also, the biofilm formation result in the test with P. aeruginosa PA14 [7] was “significantly inhibit biofilm formation”; in the test on A. baumannii (3% (w/v) sucralose, […] (w/v) ace-K, LB medium, 19 hours), “significantly inhibit biofilm formation”.
On to `OC[C@@H](O)[C@H](O)[C@@H](O)CO` [xylitol, Xylitol], for which the “bacterial growth” value with P. aeruginosa PA14 [1] (setting [10]) and with A. baumannii AB5075 [2] (setting [9]) was “inhibit the growth” throughout.
For gentamicin, the “susceptibility to antibiotic in the presence of ace-K” value in the test on P. aeruginosa is recorded as “increased susceptibility”.
On the same count and under the same terms, in the case of piperacillin/tazobactam it was “increased susceptibility”.
polymyxin B [reference compound]: in the test with P. aeruginosa, the “susceptibility to antibiotic in the presence of ace-K” value is on record as “increased susceptibility”. The “log reduction in viable cells” value in the test with A. baumannii AB5075 [8] is reported as 3.13 log; in the test on A. baumannii AB5075 [8] (burn wound biofilms, gauze loaded with 1.5 mL of 0.59 mg/mL polymyxin B singularly), 2.11 log.

(Values after US20260076974A1, “COMPOSITIONS FOR PREVENTING AND TREATING INFECTION COMPRISING AN ARTIFICIAL SWEETENER” (Brunel University London, priority 2022, published 2026).)
